Data from patent EP0335164A2, “Ester derivatives of neopentanol, process for their preparation and their use as medicines” (Merckle GmbH, priority 1988, dated 1989).
Marks after values point to notes of the source that are not given here.

Experiments:
[1] = test system: Kaolin-induziertes Pfotenoedem; assay: Kaolin-induced rat paw oedema after dermal administration; type: in vivo, Ratte; details: 10 mg/kg standard acid, esters 12.3-13.2 mg/kg equivalent to 10 mg/kg acid, applied 30 min before and 150 min after kaolin; for % Hemmung 2h: 2 h after kaolin injection; for % Hemmung 4h: 4 h after kaolin injection; for % Hemmung 6h: 6 h after kaolin injection
Excerpt: (§1) Die entzündungshemmende Wirkung wurde mit ausgewählten Verbindungen jedes Estertyps im Vergleich zum jeweiligen Standard im konventionellen Rattenpfotenoedemtest nach oraler Applikation untersucht. Die Ergebnisse sind in Tab. 3 zusammengefaßt. Weiterhin wurde mit einigen Verbindungen die entzündungshemmende Aktivität nach dermaler Applikation am Kaolin-induzierten Pfotenoedem der Ratte untersucht. Für den Test wurden die Substanzen in einer Mischung aus Ethanol/Aceton/Dimethylacetamid gelöst und im konstanten Volumen 30 Min. vor und 150 Min. nach Injektion von Kaolin (0,1 ml 10%-ige Suspension in Wasser) appliziert. Das Pfotenvolumen wurde 2, 4 und 6 Stunden nach Kaolininjektion gemessen. Die Ergebnisse sind in Tabelle 4 zusammengefaßt.

Pfotenoedem = assay: Rat paw oedema test after oral administration (anti-inflammatory effect); type: in vivo, Ratte
Excerpt: as §1

SMILES	% Hemmung 2h [1]	% Hemmung 4h [1]	% Hemmung 6h [1]	Hemmeffekt % (Pfotenoedem; 50 mg/kg) [%]	other results
CC(C)(C)COC(=O)Cc1cn(-c2ccccc2)nc1-c1ccc(Cl)cc1 [Beispiel 3, Lonazolacneopentylester]	18.2* %	31.6*** %	34.3*** %	–	–
CC(C)Cc1ccc(C(C)C(=O)O)cc1 (centres unmarked) [Ibuprofen, 2-(4-Isobutylphenyl)-propionsäure, reference compound]	–	–	–	35	–
CC(C(=O)OCC(C)(C)CO)c1ccc(C(=O)c2cccs2)cc1 (centres unmarked) [Beispiel 9]	–	–	–	–	Hemmeffekt % (Pfotenoedem; 10 mg/kg): 34%; Hemmeffekt % (Pfotenoedem; 25 mg/kg): 43%
CC(C(=O)OCC(C)(C)CO)c1cccc(C(=O)c2ccccc2)c1 (centres unmarked) [Beispiel 5]	–	–	–	–	Hemmeffekt % (Pfotenoedem; 10 mg/kg): 33%
CC(C(=O)O)c1ccc(-c2ccccc2)c(F)c1 (centres unmarked) [Flurbiprofen, 2-(2-Fluor-4-biphenylyl)-propionsäure, reference compound]	–	–	–	40	–
CC(C(=O)OCC(=O)OCC(C)(C)C)c1ccc(-c2ccccc2)c(F)c1 (centres unmarked) [Beispiel 4]	–	–	–	–	Hemmeffekt % (Pfotenoedem; 25 mg/kg): 33%
CC(C)(C)COC(=O)COC(=O)Cc1cn(-c2ccccc2)nc1-c1ccc(Cl)cc1 [Beispiel 22]	–	–	–	–	Hemmeffekt % (Pfotenoedem; 15 mg/kg): 46%
CC(C(=O)O)c1ccc(C(=O)c2cccs2)cc1 (centres unmarked) [Suprofen, 2-[4-(2-Thenoyl)phenyl]-propionsäure, reference compound]	–	–	–	20	–
CC(C)Cc1ccc(C(C)C(=O)OCC(C)(C)CO)cc1 (centres unmarked) [Beispiel 11]	–	–	–	47	–
CC(C(=O)OCC(C)(C)C)c1ccc(-c2ccccc2)c(F)c1 (centres unmarked) [Beispiel 14]	–	–	–	–	Hemmeffekt % (Pfotenoedem; 1 mg/kg): 35%
CC(C(=O)O)c1cccc(C(=O)c2ccccc2)c1 (centres unmarked) [Ketoprofen, 2-(3-Benzoylphenyl)-propionsäure, reference compound]	–	–	–	–	Hemmeffekt % (Pfotenoedem; 38 mg/kg): 44%
O=C(O)c1ccccc1Nc1cccc(C(F)(F)F)c1 [Flufenaminsäure, N-(α,α,α-Trifluor-m-tolyl)anthranilsäure, reference compound]	0%	19.4** %	23.2** %	33	–
O=C(O)Cc1cn(-c2ccccc2)nc1-c1ccc(Cl)cc1 [Lonazolac, 3-(4-Chlorphenyl)-1-phenyl-1H-pyrazol-4-essigsäure, reference compound]	0%	3.1%	30.0*** %	–	Hemmeffekt % (Pfotenoedem; 25 mg/kg): 38%
CC(C(=O)OCC(C)(C)C)c1ccc(C(=O)c2cccs2)cc1 (centres unmarked) [Beispiel 15]	–	–	–	–	Hemmeffekt % (Pfotenoedem; 5 mg/kg): 37%
CC(C)(C)COC(=O)COC(=O)Cc1ccccc1Nc1c(Cl)cccc1Cl [Beispiel 24]	–	–	–	33	–
CC(C)(CO)COC(=O)c1ccccc1Nc1cccc(C(F)(F)F)c1 [Beispiel 1, Flufenaminsäureneopentylglykolmonoester]	2.2%	23.7*** %	36.8*** %	55	Hemmeffekt % (Pfotenoedem; 25 mg/kg): 38%
CC(C)Cc1ccc(C(C)C(=O)OCC(C)(C)C)cc1 (centres unmarked) [Beispiel 17]	–	–	–	–	Hemmeffekt % (Pfotenoedem; 25 mg/kg): 43%
O=C(O)Cc1ccccc1Nc1c(Cl)cccc1Cl [Diclofenac, 2-[(2,6-Dichlorphenyl)amino]-phenylessigsäure, reference compound]	0%	36.2*** %	37.6*** %	–	Hemmeffekt % (Pfotenoedem; 100 mg/kg): 38%
CC(C)(C)COC(=O)Cc1ccccc1Nc1c(Cl)cccc1Cl [Beispiel 16]	19.2* %	40.1*** %	43.2*** %	36	–
